Experimental data reported in PubChem BioAssay (NCI).
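96-well plates; 48 h exposure; 5 concentrations. Endpoints by linear interpolation between flanking doses. Not reached: highest tested concentration assigned. TGI is the concentration that stops growth completely.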

Columns and labels:
Assay in all cases: inhibition of tumour cell growth, NCI panel, 48 h
CCRF-CEM leukemia = tested on: CCRF-CEM leukemia
SK-MEL-2 melanoma = tested on: SK-MEL-2 melanoma
TK-10 renal = tested on: TK-10 renal
786-0 renal = tested on: 786-0 renal
SF-268 CNS = tested on: SF-268 CNS
HOP-92 NSCLC = tested on: HOP-92 NSCLC
SNB-19 CNS = tested on: SNB-19 CNS
SK-MEL-28 melanoma = tested on: SK-MEL-28 melanoma
ACHN renal = tested on: ACHN renal
UO-31 renal = tested on: UO-31 renal
COLO 205 colon = tested on: COLO 205 colon
SF-295 CNS = tested on: SF-295 CNS
SW-620 colon = tested on: SW-620 colon
M19-MEL melanoma = tested on: M19-MEL melanoma
XF 498 CNS = tested on: XF 498 CNS
MOLT-4 leukemia = tested on: MOLT-4 leukemia
NCI-H460 lung = tested on: NCI-H460 lung
KM12 colon = tested on: KM12 colon
HL-60(TB) leukemia = tested on: HL-60(TB) leukemia
HCC-2998 colon = tested on: HCC-2998 colon
M14 melanoma = tested on: M14 melanoma
RPMI-8226 leukemia = tested on: RPMI-8226 leukemia
KM20L2 colon = tested on: KM20L2 colon
UACC-257 melanoma = tested on: UACC-257 melanoma
OVCAR-4 ovarian = tested on: OVCAR-4 ovarian
OVCAR-5 ovarian = tested on: OVCAR-5 ovarian
U251 CNS = tested on: U251 CNS
NCI-H23 lung = tested on: NCI-H23 lung
NCI-H522 lung = tested on: NCI-H522 lung
IGROV1 ovarian = tested on: IGROV1 ovarian
LOX IMVI melanoma = tested on: LOX IMVI melanoma
K-562 leukemia = tested on: K-562 leukemia
SNB-75 CNS = tested on: SNB-75 CNS
A498 renal = tested on: A498 renal
RXF 393 renal = tested on: RXF 393 renal
SF-539 CNS = tested on: SF-539 CNS
A549 NSCLC = tested on: A549 NSCLC
SK-MEL-5 melanoma = tested on: SK-MEL-5 melanoma
LXFL 529 NSCLC = tested on: LXFL 529 NSCLC
EKVX NSCLC = tested on: EKVX NSCLC
UACC-62 melanoma = tested on: UACC-62 melanoma
OVCAR-8 ovarian = tested on: OVCAR-8 ovarian
SK-OV-3 ovarian = tested on: SK-OV-3 ovarian
HOP-62 NSCLC = tested on: HOP-62 NSCLC
DLD-1 colon = tested on: DLD-1 colon
CAKI-1 renal = tested on: CAKI-1 renal
NCI-H226 lung = tested on: NCI-H226 lung
HCT-15 colon = tested on: HCT-15 colon
MALME-3M melanoma = tested on: MALME-3M melanoma
HT29 colon = tested on: HT29 colon
DMS 273 small cell lung = tested on: DMS 273 small cell lung
SR leukemia = tested on: SR leukemia
OVCAR-3 ovarian = tested on: OVCAR-3 ovarian
RXF-631 renal = tested on: RXF-631 renal
MDA-MB-231 breast = tested on: MDA-MB-231 breast
SN12C renal = tested on: SN12C renal
T-47D breast = tested on: T-47D breast
BT-549 breast = tested on: BT-549 breast
DU-145 prostate = tested on: DU-145 prostate
MDA-MB-435 = tested on: MDA-MB-435
MDA-N = tested on: MDA-N
HCT-116 colon = tested on: HCT-116 colon
NCI/ADR-RES ovarian = tested on: NCI/ADR-RES ovarian
HS 578T breast = tested on: HS 578T breast
PC-3 prostate = tested on: PC-3 prostate
MCF7 breast = tested on: MCF7 breast
HOP-18 NSCLC = tested on: HOP-18 NSCLC
SNB-78 CNS = tested on: SNB-78 CNS
DMS 114 small cell lung = tested on: DMS 114 small cell lung

COC1=CC(=O)[C@@]2(C)C(C)[C@H](c3ccccc3)[C@H]2C1=O (stereo partly specified)
TGI (CCRF-CEM leukemia): > 100 µM | TGI (SK-MEL-2 melanoma): > 100 µM | TGI (TK-10 renal): > 100 µM | TGI (786-0 renal): > 100 µM | TGI (SF-268 CNS): > 100 µM | TGI (HOP-92 NSCLC): > 100 µM | TGI (SNB-19 CNS): > 100 µM | TGI (SK-MEL-28 melanoma): > 100 µM | TGI (ACHN renal): > 100 µM | TGI (UO-31 renal): > 100 µM | TGI (COLO 205 colon): > 100 µM | TGI (SF-295 CNS): > 100 µM | TGI (SW-620 colon): > 100 µM | TGI (M19-MEL melanoma): > 100 µM | TGI (XF 498 CNS): > 100 µM | TGI (MOLT-4 leukemia): > 100 µM | TGI (NCI-H460 lung): > 100 µM | TGI (KM12 colon): > 100 µM | TGI (HL-60(TB) leukemia): > 100 µM | TGI (HCC-2998 colon): > 100 µM | TGI (M14 melanoma): > 100 µM | TGI (RPMI-8226 leukemia): > 100 µM | TGI (KM20L2 colon): > 100 µM | TGI (UACC-257 melanoma): > 100 µM | TGI (OVCAR-4 ovarian): > 100 µM | TGI (OVCAR-5 ovarian): > 100 µM | TGI (U251 CNS): > 100 µM | TGI (NCI-H23 lung): > 100 µM | TGI (NCI-H522 lung): > 100 µM | TGI (IGROV1 ovarian): > 100 µM | TGI (LOX IMVI melanoma): > 100 µM | TGI (K-562 leukemia): > 100 µM | TGI (SNB-75 CNS): > 100 µM | TGI (A498 renal): > 100 µM | TGI (RXF 393 renal): > 100 µM | TGI (SF-539 CNS): > 100 µM | TGI (A549 NSCLC): > 100 µM | TGI (SK-MEL-5 melanoma): > 100 µM | TGI (LXFL 529 NSCLC): > 100 µM | TGI (EKVX NSCLC): > 100 µM | TGI (UACC-62 melanoma): > 100 µM | TGI (OVCAR-8 ovarian): > 100 µM | TGI (SK-OV-3 ovarian): > 100 µM | TGI (HOP-62 NSCLC): > 100 µM | TGI (DLD-1 colon): > 100 µM | TGI (CAKI-1 renal): > 100 µM | TGI (NCI-H226 lung): > 100 µM | TGI (HCT-15 colon): > 100 µM | TGI (MALME-3M melanoma): > 100 µM | TGI (HT29 colon): > 100 µM | TGI (DMS 273 small cell lung): > 100 µM | TGI (SR leukemia): > 100 µM | TGI (OVCAR-3 ovarian): > 100 µM | TGI (RXF-631 renal): > 100 µM

C=CCN(C(C)=O)c1cc(OCc2ccccc2)c2c(c1)c(C)cn2S(=O)(=O)c1ccccc1
TGI (CCRF-CEM leukemia): > 27.1 µM | TGI (SK-MEL-2 melanoma): 12.3 µM | TGI (TK-10 renal): > 100 µM | TGI (786-0 renal): > 100 µM | TGI (MDA-MB-231 breast): > 70.8 µM | TGI (SF-268 CNS): > 100 µM | TGI (HOP-92 NSCLC): > 100 µM | TGI (SNB-19 CNS): > 100 µM | TGI (SK-MEL-28 melanoma): > 100 µM | TGI (ACHN renal): 51.4 µM | TGI (UO-31 renal): > 100 µM | TGI (COLO 205 colon): 12.6 µM | TGI (SN12C renal): > 100 µM | TGI (SF-295 CNS): > 100 µM | TGI (SW-620 colon): > 100 µM | TGI (MOLT-4 leukemia): > 22 µM | TGI (NCI-H460 lung): > 100 µM | TGI (KM12 colon): > 100 µM | TGI (HL-60(TB) leukemia): > 100 µM | TGI (HCC-2998 colon): > 100 µM | TGI (T-47D breast): > 35 µM | TGI (BT-549 breast): > 100 µM | TGI (M14 melanoma): > 100 µM | TGI (RPMI-8226 leukemia): > 28.5 µM | TGI (DU-145 prostate): > 100 µM | TGI (UACC-257 melanoma): > 100 µM | TGI (OVCAR-4 ovarian): > 100 µM | TGI (OVCAR-5 ovarian): > 100 µM | TGI (U251 CNS): > 100 µM | TGI (NCI-H23 lung): > 100 µM | TGI (NCI-H522 lung): > 55.3 µM | TGI (IGROV1 ovarian): > 100 µM | TGI (MDA-MB-435): > 46.3 µM | TGI (LOX IMVI melanoma): 50.1 µM | TGI (K-562 leukemia): > 54.8 µM | TGI (SNB-75 CNS): > 100 µM | TGI (A498 renal): 26.3 µM | TGI (RXF 393 renal): > 100 µM | TGI (SF-539 CNS): > 100 µM | TGI (A549 NSCLC): > 100 µM | TGI (MDA-N): > 74.7 µM | TGI (SK-MEL-5 melanoma): 21.5 µM | TGI (EKVX NSCLC): > 50.3 µM | TGI (UACC-62 melanoma): > 76.9 µM | TGI (OVCAR-8 ovarian): > 100 µM | TGI (SK-OV-3 ovarian): > 100 µM | TGI (HCT-116 colon): > 100 µM | TGI (HOP-62 NSCLC): > 100 µM | TGI (NCI/ADR-RES ovarian): > 100 µM | TGI (CAKI-1 renal): > 54.7 µM | TGI (NCI-H226 lung): > 31.1 µM | TGI (HS 578T breast): > 70.4 µM | TGI (HCT-15 colon): > 100 µM | TGI (MALME-3M melanoma): 34.2 µM | TGI (HT29 colon): > 100 µM | TGI (SR leukemia): 4.21 µM | TGI (OVCAR-3 ovarian): > 27.7 µM | TGI (PC-3 prostate): > 78.4 µM | TGI (MCF7 breast): 31 µM

CCOC(=O)C1=C(C)N(NC(=O)Nc2ccccc2)C2(N)N(NC(=O)Nc3ccccc3)C(C)=C(C(=O)OCC)C12C#N (stereo unspecified)
TGI (CCRF-CEM leukemia): 71.9 µM | TGI (SK-MEL-2 melanoma): 30.2 µM | TGI (TK-10 renal): 49.3 µM | TGI (786-0 renal): 32.4 µM | TGI (SF-268 CNS): 42.8 µM | TGI (HOP-92 NSCLC): 39.4 µM | TGI (SK-MEL-28 melanoma): 32.1 µM | TGI (ACHN renal): 51.4 µM | TGI (UO-31 renal): > 100 µM | TGI (COLO 205 colon): 32.6 µM | TGI (SN12C renal): 33 µM | TGI (SW-620 colon): 36.2 µM | TGI (M19-MEL melanoma): 31.6 µM | TGI (MOLT-4 leukemia): 56.8 µM | TGI (NCI-H460 lung): 33.1 µM | TGI (HCC-2998 colon): 33.9 µM | TGI (HOP-18 NSCLC): 34.3 µM | TGI (M14 melanoma): 34.6 µM | TGI (RPMI-8226 leukemia): 50.5 µM | TGI (KM20L2 colon): 33.4 µM | TGI (UACC-257 melanoma): 38.5 µM | TGI (OVCAR-4 ovarian): 31.5 µM | TGI (OVCAR-5 ovarian): 32.4 µM | TGI (U251 CNS): 32.3 µM | TGI (NCI-H23 lung): 43.9 µM | TGI (NCI-H522 lung): 33.1 µM | TGI (IGROV1 ovarian): 36.6 µM | TGI (LOX IMVI melanoma): 34 µM | TGI (K-562 leukemia): 48.2 µM | TGI (SNB-75 CNS): 36.6 µM | TGI (SNB-78 CNS): 37.6 µM | TGI (A498 renal): 45 µM | TGI (RXF 393 renal): 27.7 µM | TGI (A549 NSCLC): > 100 µM | TGI (LXFL 529 NSCLC): 32.6 µM | TGI (UACC-62 melanoma): 32.2 µM | TGI (OVCAR-8 ovarian): 33.4 µM | TGI (SK-OV-3 ovarian): 52.1 µM | TGI (HCT-116 colon): 31.2 µM | TGI (DLD-1 colon): 34.1 µM | TGI (CAKI-1 renal): 40.1 µM | TGI (NCI-H226 lung): 36.1 µM | TGI (DMS 114 small cell lung): 32.9 µM | TGI (HCT-15 colon): 37.1 µM | TGI (MALME-3M melanoma): 30.6 µM | TGI (HT29 colon): 38.1 µM | TGI (DMS 273 small cell lung): 31.3 µM | TGI (OVCAR-3 ovarian): 32.2 µM
